Source: patent publication US20040097734A1, “Aryl- and heteroarylcarbonylpiperazines and their use for the treatment of benign and malignant oncoses” (priority 2002, published 2004)
≈ marks a conversion by molar mass, not a printed value. Like-named read-outs stand apart in the source and are kept apart here.

Tests used:
[1] = test system: human cervical carcinoma cell line KB/HeLa; assay: XTT proliferation assay, KB/HeLa; format: cell-based; details: KB/HeLa cells, 45 h incubation
Description: (§1) The substances according to the invention were investigated for their antiproliferative activity in a proliferation test on established tumor cell lines. The test used determines the cellular dehydrogenase activity and makes possible a determination of the cell vitality and indirectly the cell count. The cell lines used are the human cervical carcinoma cell line KB/HeLa, (ATCC CCL17), the ovarian adenocarcinoma cell line SKOV-3 (ATCC HTB77), the human glioblastoma cell line SF-268 (NCI 503138) and the lung carcinoma cell line NCI-H460 (NCI 503473). In addition, for the investigation of the cell cycle-specific action of the substance, an RKOp27 cell system was used (M. Schmidt et al. Oncogene 19(20):2423-9, 2000). RKO is a human colon carcinoma cell line, in which the cell cycle inhibitor p27^kip1 induced by means of the ecdysone expression system is expressed and can be led to a cell cycle arrest specifically in […]. A nonspecifically acting substance inhibits the proliferation independently of weather the RKO cell is or is not arrested in G1 or G2. Cell cycle-specific substances such as, for example, tubulin inhibitors are, however, only cytotoxic if cells are not arrested and the cell cycle is passed through. In table 1, the cytotoxic and/or growth-inhibiting activities of the compound described with/without expression of p27^kip1 are shown.
(§2) The adherently growing tumor cell lines KB/HeLa, SKOV-3, SF-268 and NCI-H460 were cultured under standard conditions in a fumigation incubator at 37° C., 5% CO2 and 95% atmospheric humidity. On experimental day 1, the cells are detached using trypsin/EDTA and pelleted by centrifugation. Subsequently, the cell pellet is resuspended in the respective culture medium at the corresponding cell count and reacted in a 96-well microtiter plate. The plates are then cultured overnight in the fumigation incubator. The test substances are prepared as 1 mg/ml stock solutions in DMSO and diluted to the appropriate concentrations on experimental day 2 using culture medium. The substances in culture medium are then added to the cells and incubated in the fumigation incubator for 45h. As a control, cells which are not treated with test substance are used. For the XTT assay, 1 mg/ml of XTT (sodium 3′-[1-(phenylaminocarbonyl)-3,4-tetrazolium]-bis(4-methoxy-6-nitro)benzenesulfonic acid) is dissolved in RPMI-1640 medium without Phenol Red. Additionally, a 0.383 mg/ml PMS (N-methyldibenzopyrazine methylsulfate) solution in phosphate-buffered saline solution (PBS) is prepared. On experimental day 4, 75 μl/well of XTT-PMS mixture is pipetted onto the cell plates which in the meantime have been incubated with the test substances for 45 h. For this, shortly before use, the XTT solution is mixed with the PMS solution in the ratio 50:1 (vol:vol). The cell plates are then incubated in the fumigation incubator for a further 3h and the optical density (OD490nm) is determined in a photometer. By means of the OD490nm determined, the percentage inhibition is calculated relative to the control and plotted semilogarithmically in the form of a concentration-action curve. The EC50 is calculated by means of a regression analysis from the concentration-action curve using the program Graphpad Prism.

[2] = test system: ovarian adenocarcinoma cell line SKOV-3; assay: XTT proliferation assay, SKOV-3; format: cell-based; details: Homo sapiens, SK-OV-3; SKOV-3 cells, 45 h incubation; read-out: XTT proliferation assay, EC50, SKOV3
Description: as §1, §2

[3] = test system: lung carcinoma cell line NCI-H460; assay: XTT proliferation assay, NCI-H460; format: cell-based; details: Homo sapiens; NCI-H460 cells, 45 h incubation
Description: as §1, §2

[4] = test system: human glioblastoma cell line SF-268; assay: XTT proliferation assay, SF-268; format: cell-based; details: SF-268 cells, 45 h incubation
Description: as §1, §2

bovine tubulin = assay: Tubulin polymerization assay; format: biochemical; details: average of two independent experiments; for Inhibition of tubulin polymerization, EC50, with 30% MAPs: bovine tubulin with 30% MAPs; for Inhibition of tubulin polymerization, EC50, without MAPs: MAP-free bovine tubulin
Protocol: Selected substances were tested for inhibition of the polymerization of bovine tubulin in an in-vitro test. In this test, tubulin purified by cycles of polymerization and depolymerization is employed, which is polymerized by addition of GTP and warming. In Table 2, the EC50 values of the inhibition of polymerization of tubulin with 30% associated proteins (MAPs) and of MAP-free tubulin are indicated.
The assay is carried out based on the method of Bollag et. al. Lyophilized bovine tubulin (cytoskeleton, ML113 tubulin 30% MAPs, TL238 tubulin MAP free) is dissolved in a concentration of 2 mg/ml (ML113 in 80 mM PIPES, 0.5 mM EGTA, 2 mM MgCl2, pH6.9, 1 mM GTP) or 5 mg/ml (TL238 in 80 mM PIPES, 1 mM EGTA, 0.5 mM MgCl2, 20% (v:v) glycerol pH 6.9, 1 mM GTP). The test substances are diluted in 10% DMSO (v:v) and 5 μl of the dilutions are transferred to a 96-well microtiter plate (Nunc, half area plate). After addition of 45 μl of the tubulin solution, the polymerization is determined at 340 nm in a Spectramax 190 microtiter plate reader (Molecular devices) by means of a kinetics program at 30 sec intervals over a period of 20 min. The resulting area under curve values are used for the calculation of the inhibition with respect to the untreated control and plotted semilogarithmically in the form of a concentration-action curve. The EC50 is calculated by means of a regression analysis from the concentration-action curve using the program Graphpad Prism.

[5] = test system: RKOp27 human colon carcinoma cell line; assay: Cell cycle analysis by means of the RKOp27 model (XTT); format: cell-based; details: RKOp27, 45 h, RKOp27 cells, read-out: XTT proliferation assay, EC50, RKOP27
Description: as §1, §2
The assay is carried out in 96-well plates. […] By comparison of the activity on induced and noninduced cells, conclusions on the mechanism of action (cell cycle specificity) of the therapeutics can be drawn. […] are inoculated in approximately three-fold higher cell count, since division no longer takes place during the assay in comparison with uninduced cells (20000 cells/well induced, 6250 cells/well not induced). The controls are untreated cells (+/−induction). The induction is carried out with 3 μM muristerone A On the 1st day, the cells are exposed (+/− muristerone A) and incubated at 37° C. for 24h. […]

[6] = p27kip1 induced with 3 μM muristerone A (arrested)
[7] = without expression of p27kip1 (not induced)

SMILES	EC50 [1] [µg/mL]	EC50 [2] [µg/mL]	EC50 [3] [µg/mL]	EC50 [4] [µg/mL]	Inhibition of tubulin polymerization, EC50, with 30% MAPs (bovine tubulin) [µg/mL]	EC50 [5, 6] [µg/mL]	EC50 [5, 7] [µg/mL]	melting point [°C]	Inhibition of tubulin polymerization, EC50, without MAPs (bovine tubulin) [µg/mL]
CSc1nsc(SC)c1C(=O)N1CCN(c2cccc(C)n2)CC1 [Compound 7, (3,5-Bismethylsulfanylisothiazol-4-yl)-[4-(6-methylpyridin-2-yl)piperazin-1-yl]methanone]	2.71 (≈ 7.12 µM)	1.01 (≈ 2.65 µM)	1.54 (≈ 4.05 µM)			> 3.16	1.2 (≈ 3.15 µM)		
O=C1c2ccccc2-c2c1cccc2C(=O)N1CCN(c2cccc(O)c2)CC1 [Compound 3, 4-[4-(3-Hydroxyphenyl)piperazine-1-carbonyl]fluoren-9-one]	4.32 (≈ 11.2 µM)	0.397 (≈ 1.03 µM)	0.853 (≈ 2.22 µM)	0.478 (≈ 1.24 µM)	4.77	> 3.16	0.726 (≈ 1.89 µM)		
Cc1cccc(N2CCN(C(=O)c3cccc4c3-c3ccccc3C4=O)CC2)n1 [Compound 2, 4-[4-(6-Methylpyridin-2-yl)piperazine-1-carbonyl]fluoren-9-one]	2.59 (≈ 6.76 µM)	0.585 (≈ 1.53 µM)	0.886 (≈ 2.31 µM)	0.939 (≈ 2.45 µM)		> 3.16	0.326 (≈ 0.85 µM)		
Cc1cc(C)cc(N2CCN(C(=O)c3cnnc4ccccc34)CC2)c1 [Compound 5, Cinnolin-4-yl-[4-(3,5-dimethylphenyl)piperazin-1-yl]methanone]	1.21 (≈ 3.5 µM)	0.496 (≈ 1.43 µM)	0.348 (≈ 1 µM)	0.474 (≈ 1.37 µM)		> 3.16	0.25 (≈ 0.722 µM)	114	
COc1cc(OC)cc(N2CCN(C(=O)c3cccc4c3-c3ccccc3C4=O)CC2)c1 [Compound 1, 4-[4-(3,5-Dimethoxyphenyl)piperazine-1-carbonyl]fluoren-9-one]	0.555 (≈ 1.3 µM)	0.4 (≈ 0.934 µM)	0.312 (≈ 0.728 µM)	0.309 (≈ 0.721 µM)	0.86	> 3.16	0.208 (≈ 0.485 µM)		1.36
COc1cc(OC)cc(N2CCN(C(=O)c3nccc4ccccc34)CC2)c1 [Compound 8, [4-(3,5-Dimethoxyphenyl)piperazin-1-yl]isoquinolin-1-ylmethanone]	0.929 (≈ 2.46 µM)	0.287 (≈ 0.76 µM)	0.439 (≈ 1.16 µM)	0.775 (≈ 2.05 µM)	5.66	> 3.16	0.291 (≈ 0.771 µM)		

The remaining lines, values ahead:

EC50 [1] [µg/mL]	EC50 [2] [µg/mL]	EC50 [3] [µg/mL]	EC50 [4] [µg/mL]	Inhibition of tubulin polymerization, EC50, with 30% MAPs (bovine tubulin) [µg/mL]	EC50 [5, 6] [µg/mL]	EC50 [5, 7] [µg/mL]	melting point [°C]	Inhibition of tubulin polymerization, EC50, without MAPs (bovine tubulin) [µg/mL]	SMILES
0.012 (≈ 0.0331 µM)	0.008 (≈ 0.0221 µM)	0.005 (≈ 0.0138 µM)	0.009 (≈ 0.0248 µM)	0.46	> 3.16	0.006 (≈ 0.0166 µM)			COc1cccc(N2CCN(C(=O)c3ccnn3-c3ccccc3)CC2)c1 [Compound 14, [4-(3-Methoxyphenyl)piperazin-1-yl]-(2-phenyl-2H-pyrazol-3-yl)methanone]
0.147 (≈ 0.422 µM)	0.082 (≈ 0.235 µM)	0.087 (≈ 0.25 µM)	0.1 (≈ 0.287 µM)	4.20	> 3.16	0.064 (≈ 0.184 µM)			O=C(c1ccnn1-c1ccccc1)N1CCN(c2cccc(O)c2)CC1 [Compound 16, [4-(3-Hydroxyphenyl)piperazin-1-yl]-(2-phenyl-2H-pyrazol-3-yl)methanone]
0.166 (≈ 0.432 µM)	0.082 (≈ 0.213 µM)	0.085 (≈ 0.221 µM)	0.094 (≈ 0.244 µM)	1.18	> 3.16	0.082 (≈ 0.213 µM)	162 to 163		COc1cccc(N2CCN(C(=O)C3c4ccccc4-c4ccccc43)CC2)c1 [Compound 10, (9H-Fluoren-9-yl)-[4-(3-methoxyphenyl)piperazin-1-yl]methanone]
0.628 (≈ 1.57 µM)	0.293 (≈ 0.732 µM)	0.29 (≈ 0.724 µM)	0.408 (≈ 1.02 µM)	0.73	> 3.16	0.193 (≈ 0.482 µM)	110		COc1cccc(N2CCN(C(=O)C3c4ccccc4Oc4ccccc43)CC2)c1 [Compound 13, [4-(3-Methoxyphenyl)piperazin-1-yl]-(9H-xanthen-9-yl)methanone]
0.613 (≈ 1.48 µM)	0.341 (≈ 0.823 µM)	0.427 (≈ 1.03 µM)	0.692 (≈ 1.67 µM)		> 3.16	0.217 (≈ 0.524 µM)	148		COc1cc(OC)cc(N2CCN(C(=O)c3cccc4c3Cc3ccccc3-4)CC2)c1 [Compound 9, [4-(3,5-Dimethoxyphenyl)piperazin-1-yl]-(9H-fluoren-1-yl)methanone]
0.08 (≈ 0.186 µM)	0.029 (≈ 0.0674 µM)	0.064 (≈ 0.149 µM)	0.075 (≈ 0.174 µM)	1.16	> 3.16	0.058 (≈ 0.135 µM)		1.71	COc1cc(OC)cc(N2CCN(C(=O)C3c4ccccc4Oc4ccccc43)CC2)c1 [Compound 12, [4-(3,5-Dimethoxyphenyl)piperazin-1-yl]-(9H-xanthen-9-yl)methanone]
							124		COc1cccc(N2CCN(C(=O)c3cccc4c3Cc3ccccc3-4)CC2)c1 [Compound 11, (9H-Fluoren-1-yl)-[4-(3-methoxyphenyl)piperazin-1-yl]methanone]
0.04 (≈ 0.115 µM)	0.018 (≈ 0.0518 µM)	0.024 (≈ 0.0691 µM)	0.036 (≈ 0.104 µM)	0.88	> 3.16	0.022 (≈ 0.0633 µM)			Cc1cccc(N2CCN(C(=O)c3ccnn3-c3ccccc3)CC2)n1 [Compound 15, [4-(6-Methylpyridin-2-yl)piperazin-1-yl]-(2-phenyl-2H-pyrazol-3-yl)methanone]
